Like-named read-outs stand apart in the source and are kept apart here.
Test system: respiratory epithelial cells
Conditions: for expression level change, AQP5 (Probe ID 91275_at) / expression level change, ESTs AI758223 (Probe ID 76769_at) / expression level change, ESTs AI927079 (Probe ID 88716_at) / expression level change, MGC14128 (Probe ID 89360_at) / expression level change, PADI1 (Probe ID 81926_at) / expression level change, ST6GalNAcI (Probe ID 89741_at) / expression level change, CNTN1 (Probe ID 88239_i_at) / expression level change, DKFZP434I1735 (Probe ID 77516_r_at) / expression level change, FLJ10718 (Probe ID 69750_at) / expression level change, LGALS1 (Probe ID 80667_f_at) / expression level change, MGC14128 (Probe ID 86024_at): IL-13 stimulation
[1] = IL-13 vs no stimulation, lot 1 Day 3 AI
[2] = IL-13 vs no stimulation, lot 1 Day 3 IMM

IL-13: human IL-13 (Peprotech, Inc.) added to the medium at 50 ng/mL to stimulate respiratory epithelial cells
SLC21A12 (87860_s_at) expression change upon IL-13 stimulation (HG-U95E, lot 2, Day 7): 2.8 | rab11-FIP1 (89338_at) expression change upon IL-13 stimulation (HG-U95E, lot 2, Day 7): 14.6 | AA199856 (72960_s_at) expression change upon IL-13 stimulation (HG-U95E, lot 2, Day 7, AI): 5.5 | AA806114 (80826_at) expression change upon IL-13 stimulation (HG-U95E, lot 2, Day 7, AI): 2 | AI803648 (89255_at) expression change upon IL-13 stimulation (HG-U95E, lot 2, Day 7, AI): 2.4 | AI859144, KIAA1127 (77546_at) expression change upon IL-13 stimulation (HG-U95E, lot 2, Day 7, AI): 9.8 | AI984061 (89834_at) expression change upon IL-13 stimulation (HG-U95E, lot 2, Day 7, AI): 3.1 | AW024819 (72867_at) expression change upon IL-13 stimulation (HG-U95E, lot 2, Day 7, AI): 2.3 | BAL (69619_at) expression change upon IL-13 stimulation (HG-U95E, lot 2, Day 7, AI): 2.4 | BCAT1 (72962_at) expression change upon IL-13 stimulation (HG-U95E, lot 2, Day 7, AI): 3.7 | CLDN1 (77660_at) expression change upon IL-13 stimulation (HG-U95E, lot 2, Day 7, AI): 5.4 | EHF (8S090_at) expression change upon IL-13 stimulation (HG-U95E, lot 2, Day 7, AI): 3 | EHF (85092_g_at) expression change upon IL-13 stimulation (HG-U95E, lot 2, Day 7, AI): 7 | EPPK1 (86507_at) expression change upon IL-13 stimulation (HG-U95E, lot 2, Day 7, AI): 3.2 | FLJ20281 (83376_at) expression change upon IL-13 stimulation (HG-U95E, lot 2, Day 7, AI): 2.6 | FLJ20989 (91420_at) expression change upon IL-13 stimulation (HG-U95E, lot 2, Day 7, AI): 2.1 | FLJ21415 (89902_at) expression change upon IL-13 stimulation (HG-U95E, lot 2, Day 7, AI): 2.7 | FLJ22833 (67329_at) expression change upon IL-13 stimulation (HG-U95E, lot 2, Day 7, AI): 4.2 | GCNT3 (77751_at) expression change upon IL-13 stimulation (HG-U95E, lot 2, Day 7, AI): 2 | KIAA1685 (83541_at) expression change upon IL-13 stimulation (HG-U95E, lot 2, Day 7, AI): 2 | MASL1 (89651_at) expression change upon IL-13 stimulation (HG-U95E, lot 2, Day 7, AI): 4.2 | MFHAS1 (87816_g_at) expression change upon IL-13 stimulation (HG-U95E, lot 2, Day 7, AI): 2.7 | RIG-1 (77749_at) expression change upon IL-13 stimulation (HG-U95E, lot 2, Day 7, AI): 2.3 | SCYA26 (90189_at) expression change upon IL-13 stimulation (HG-U95E, lot 2, Day 7, AI): 29.8 | expression level change, AQP5 (Probe ID 91275_at) (lot 1, Day 3, AI): −7.7 | expression level change, ESTs AI758223 (Probe ID 76769_at) (lot 1, Day 3, AI): −3.6 | expression level change, ESTs AI927079 (Probe ID 88716_at) (lot 1, Day 3, AI): −2.7 | expression level change, MGC14128 (Probe ID 89360_at) (lot 1, Day 3, AI): −2.1 | expression level change, PADI1 (Probe ID 81926_at) (lot 1, Day 3, AI): −6.1 | expression level change, ST6GalNAcI (Probe ID 89741_at) (lot 1, Day 3, AI): −2.5 | expression level change, AQP5 (Probe ID 91275_at) (lot 1, Day 3, IMM): −3.8 | expression level change, ESTs AI758223 (Probe ID 76769_at) (lot 1, Day 3, IMM): −2.1 | expression level change, MGC14128 (Probe ID 89360_at) (lot 1, Day 3, IMM): −2.6 | expression level change, AQP5 (Probe ID 91275_at) (lot 1, Day 7, AI): −3.7 | expression level change, CNTN1 (Probe ID 88239_i_at) (lot 1, Day 7, AI): −2 | expression level change, DKFZP434I1735 (Probe ID 77516_r_at) (lot 1, Day 7, AI): −2 | expression level change, ESTs AI758223 (Probe ID 76769_at) (lot 1, Day 7, AI): −14.8 | expression level change, ESTs AI927079 (Probe ID 88716_at) (lot 1, Day 7, AI): −12.9 | expression level change, FLJ10718 (Probe ID 69750_at) (lot 1, Day 7, AI): −3 | expression level change, LGALS1 (Probe ID 80667_f_at) (lot 1, Day 7, AI): −7.2 | expression level change, MGC14128 (Probe ID 86024_at) (lot 1, Day 7, AI): −4 | expression level change, MGC14128 (Probe ID 89360_at) (lot 1, Day 7, AI): −3.8 | expression level change, PADI1 (Probe ID 81926_at) (lot 1, Day 7, AI): −6.1 | expression level change, ST6GalNAcI (Probe ID 89741_at) (lot 1, Day 7, AI): −2.4 | expression level change, CNTN1 (Probe ID 88239_i_at) (lot 1, Day 7, IMM): −2.7 | expression level change, ESTs AI758223 (Probe ID 76769_at) (lot 1, Day 7, IMM): −15.7 | expression level change, ESTs AI927079 (Probe ID 88716_at) (lot 1, Day 7, IMM): −10.7 | expression level change, FLJ10718 (Probe ID 69750_at) (lot 1, Day 7, IMM): −4.7 | expression level change, LGALS1 (Probe ID 80667_f_at) (lot 1, Day 7, IMM): −5.2 | expression level change, MGC14128 (Probe ID 86024_at) (lot 1, Day 7, IMM): −2.9 | expression level change, MGC14128 (Probe ID 89360_at) (lot 1, Day 7, IMM): −2.9 | expression level change, PADI1 (Probe ID 81926_at) (lot 1, Day 7, IMM): −7.6 | expression level change, ST6GalNAcI (Probe ID 89741_at) (lot 1, Day 7, IMM): −4.3 | expression level change, AQP5 (Probe ID 91275_at) (lot 2, Day 3, AI): −14.3 | expression level change, CNTN1 (Probe ID 88239_i_at) (lot 2, Day 3, AI): −3.8 | expression level change, ESTs AI758223 (Probe ID 76769_at) (lot 2, Day 3, AI): −9.6 | expression level change, ESTs AI927079 (Probe ID 88716_at) (lot 2, Day 3, AI): −7 | expression level change, LGALS1 (Probe ID 80667_f_at) (lot 2, Day 3, AI): −2.5 | expression level change, MGC14128 (Probe ID 86024_at) (lot 2, Day 3, AI): −2.4 | expression level change, PADI1 (Probe ID 81926_at) (lot 2, Day 3, AI): −6.7 | expression level change, ST6GalNAcI (Probe ID 89741_at) (lot 2, Day 3, AI): −8.8 | expression level change, AQP5 (Probe ID 91275_at) (lot 2, Day 7, AI): −7.7 | expression level change, CNTN1 (Probe ID 88239_i_at) (lot 2, Day 7, AI): −3.3 | expression level change, DKFZP434I1735 (Probe ID 77516_r_at) (lot 2, Day 7, AI): −2.7 | expression level change, ESTs AI927079 (Probe ID 88716_at) (lot 2, Day 7, AI): −18.5 | expression level change, FLJ10718 (Probe ID 69750_at) (lot 2, Day 7, AI): −3.6 | expression level change, LGALS1 (Probe ID 80667_f_at) (lot 2, Day 7, AI): −8.2 | expression level change, MGC14128 (Probe ID 86024_at) (lot 2, Day 7, AI): −2.8 | expression level change, MGC14128 (Probe ID 89360_at) (lot 2, Day 7, AI): −4 | expression level change, PADI1 (Probe ID 81926_at) (lot 2, Day 7, AI): −6.8 | expression level change, ST6GalNAcI (Probe ID 89741_at) (lot 2, Day 7, AI): −8.4 | AKR1B10 (37482_at) expression change [1]: −6.5 | AKR1C3 (37399_at) expression change [1]: −3.3 | AREG (34898_at) expression change [1]: −2.3 | BDKRB2 (39310_at) expression change [1]: −2.1 | BENE (33331_at) expression change [1]: −3.7 | CTSL2 (40717_at) expression change [1]: −2.8 | DUSP1 (1005_at) expression change [1]: −2.8 | GABRE (34280_at) expression change [1]: −2 | GPNMB (38379_at) expression change [1]: −3.3 | IGFBP3 (1586_at) expression change [1]: −2.4 | IGFBP3 (37319_at) expression change [1]: −2.7 | IGFBP6 (1736_at) expression change [1]: −3.6 | IMPA2 (36496_at) expression change [1]: −2.8 | LOH11CR2A (38151_at) expression change [1]: −2.1 | MMP9 (31859_at) expression change [1]: −25.5 | MMP10 (1006_at) expression change [1]: −6.3 | MSMB (32149_at) expression change [1]: −8.6 | NDRG1 (36933_at) expression change [1]: −4.9 | NOTCH3 (38750_at) expression change [1]: −2.9 | PFTK1 (36502_at) expression change [1]: −3.9 | PSCA (33792_at) expression change [1]: −6 | RARRES1 (1042_at) expression change [1]: −3.1 | RARRES1 (33505_at) expression change [1]: −2.2 | RDC1 (34288_at) expression change [1]: −4.1 | S100A8 (41096_at) expression change [1]: −5.4 | SEC14L2 (32817_at) expression change [1]: −2.1 | SERPINB5 (862_at) expression change [1]: −2.2 | SERPINE1 (672_at) expression change [1]: −12 | SERPINE1 (38125_at) expression change [1]: −6.9 | STK39 (39120_at) expression change [1]: −3.9 | c-fos (1915_s_at) expression change [1]: −2 | c-fos (1916_s_at) expression change [1]: −2.2 | AKR1B10 (37482_at) expression change [2]: −2.8 | APM2 (32527_at) expression change [2]: −2.1 | AREG (34898_at) expression change [2]: −4.2
